{"source": "patent US20080113003A1", "about": "“Sinapic Acid Supplementation” (UNIVERSITY OF SASKATCHEWAN, priority 2004, published 2008)", "key": {"[1]": {"assay": "Example 1: performance of broiler chickens on dietary sinapic acid (gain, feed intake, gain/feed)", "type": "in vivo", "conditions": "0-18 d of age", "text": "Bird management. Broilers were housed in battery brooders."}, "[2]": {"assay": "Example 1: apparent nutrient digestibility (AME, ileal and fecal protein)", "type": "in vivo, broiler chickens", "conditions": "for AME (apparent metabolizable energy): excreta 16-18 d", "protocol": "(§1) Sample Analyses. Acid insoluble ash (AIA, Celite) was used as an indigestible marker for the determination of the apparent digestibility of metabolizable energy, protein (ileal and fecal) and SA. AIA was determined by using the procedure of Vogtmann et al, 1975 Br. Poult. Sci. 67:641-646. The gross energy was measured by a traditional bomb calorimeter, and crude protein was analyzed by a Leco FP-528™ protein analyzer (Model No. 601-500-100, Serial#3211, LECO Corporation, 3000 Lakeview Avenue, St. Joseph Mich. 49085-2396 USA). Based on the assay of nutrient and AIA in feed, excreta, and ileal content, the nutrient digestibility was determined."}, "[3]": {"assay": "Example 1: apparent sinapic acid digestibility (HPLC of feed, excreta, digesta)", "type": "in vivo, broiler chickens", "conditions": "dietary sinapic acid 0.025-0.10%", "protocol": "as §1\nThe analysis of sinapic acid in feed, excreta and digesta samples was conducted by HPLC using a reversed-phase column under the fluorescence detection method. The mobile phase was isocratic, based on 6% MeOH solution with 20 mmol K2HPO4 as basic buffer. For feed and excreta samples, the analysis was conducted at pH 9.5, however, for ileal and cecal samples, the pH was changed to 9 to obtain better background separation and chromatograms."}, "[4]": {"system": "bacterial populations in the ileum and ceca", "assay": "Example 2: volatile fatty acid content of ileal and cecal digesta (0.05-0.20% sinapic acid)", "type": "in vivo, broiler chickens", "conditions": "sinapic acid 0.05-0.20% in diet", "protocol": "Bird management and diet composition were as described in Example 1. Volatile Fatty Acid (VFA) Measurement. The status of bacterial populations in the ileum and ceca of experimental birds was assessed by examining VFA production. The birds were killed by lethal injection with T-61TM(Euthanasia solution) and the ileal and cecal digesta of three birds within each replication were collected in a well-sealed plastic centrifuge tube and then frozen at -20° C. Ileal digesta were collected from the terminal ileum (distal half excluding the last 2 cm anterior from the ceca). Samples within a replication were pooled and mixed well prior to VFA measurement. Analyses of VFA (acetic, propionic, isobutyric, butyric, isovaleric, and valeric acid) were conducted by Gas Chromatography (GC) (Varian Star 3400) using a StabilwaxTM-DA column (0.25 mm ID, 0.25 μm […] Corporation, 110 Benner Circle, Bellefonte Pa., 16823-8812 USA) and based on the procedure of Choct et al. (Br. Poult. […] A concentration of 2 mmol/L is acceptable for the internal standard in intestinal content samples. One ml of standard solution was added to 0.2 (cecal) or 0.5 (ileal) g of sample and vortexed until well-mixed. The mixture was then centrifuged at 28,000 g for 10 minutes and the supernatant pipetted into GC vials for analysis. Statistical Analyses. […]"}, "[5]": {"system": "cecal microbial community", "assay": "Example 3: microbial community assay, % G+C profile of cecal digesta", "type": "in vivo, broiler chickens", "conditions": "dose dependent, sinapic acid 0.025-0.10% in diet"}, "[6]": {"assay": "Example 3: feed consumption, weight gain and diet AME", "type": "in vivo, broiler chickens", "conditions": "sinapic acid 0.025% in diet", "protocol": "Broiler chickens were fed a corn-soybean meal based diet either unsupplemented or supplemented with sinapic acid at a level of 0.025%, 0.05% or 0.1%. After the supplementation period, microbial analysis was conducted. This Example was designed to confirm the results of Example 2, to assess effects on microbial community, and to repeat the VFA measurement by increasing the chick numbers within the replication.\nNinety-six ([…]) male broiler chicks (Peterson X Hubbard) were randomly assigned to four treatments, with six birds in each replication and four replications for each treatment. A corn-soybean based diet served as a control, while another three diets were supplemented with graded levels of sinapic acid (0.025, 0.05 and 0.10%). Bird management was as previously described in Example 1. Volatile fatty acid measurement was conducted as described in Example 2, except that digesta was pooled from six birds per replication."}}, "note": "Marks after values point to notes of the source that are not given here."}
{"smiles": "COc1cc(C=CC(=O)O)cc(OC)c1O", "note": "[Sinapic Acid, 4-hydroxy-3,5dimethyoxy-cinnamic acid]", "values": [{"measurement": "Feed intake/bird", "setting": "[1]; sinapic acid 0.025% in diet", "value": "781^a g"}, {"measurement": "Gain", "setting": "[1]; sinapic acid 0.025% in diet", "value": 561, "unit": "g"}, {"measurement": "Gain/feed", "setting": "[1]; sinapic acid 0.025% in diet", "value": 0.72}, {"measurement": "Feed intake/bird", "setting": "[1]; sinapic acid 0.05% in diet", "value": "738^ab g"}, {"measurement": "Gain", "setting": "[1]; sinapic acid 0.05% in diet", "value": 545, "unit": "g"}, {"measurement": "Gain/feed", "setting": "[1]; sinapic acid 0.05% in diet", "value": 0.74}, {"measurement": "Feed intake/bird", "setting": "[1]; sinapic acid 0.10% in diet", "value": "689^b g"}, {"measurement": "Gain", "setting": "[1]; sinapic acid 0.10% in diet", "value": 491, "unit": "g"}, {"measurement": "Gain/feed", "setting": "[1]; sinapic acid 0.10% in diet", "value": 0.71}, {"measurement": "Fecal protein digest.", "setting": "[2]; sinapic acid 0.025% in diet", "value": 68.5, "unit": "%"}, {"measurement": "Ileal protein digest.", "setting": "[2]; sinapic acid 0.025% in diet", "value": 81.5, "unit": "%"}, {"measurement": "AME (apparent metabolizable energy)", "setting": "[2]; sinapic acid 0.025% in diet", "value": 3412, "unit": "kcal/kg"}, {"measurement": "Fecal protein digest.", "setting": "[2]; sinapic acid 0.05% in diet", "value": 66.3, "unit": "%"}, {"measurement": "Ileal protein digest.", "setting": "[2]; sinapic acid 0.05% in diet", "value": 78.8, "unit": "%"}, {"measurement": "AME (apparent metabolizable energy)", "setting": "[2]; sinapic acid 0.05% in diet", "value": 3418, "unit": "kcal/kg"}, {"measurement": "Fecal protein digest.", "setting": "[2]; sinapic acid 0.10% in diet", "value": 66.5, "unit": "%"}, {"measurement": "Ileal protein digest.", "setting": "[2]; sinapic acid 0.10% in diet", "value": 80, "unit": "%"}, {"measurement": "AME (apparent metabolizable energy)", "setting": "[2]; sinapic acid 0.10% in diet", "value": 3442, "unit": "kcal/kg"}, {"measurement": "sinapic acid in the cecal digesta", "setting": "[3]", "value": "no sinapic acid found"}, {"measurement": "reduction of acetic acid level in cecal contents compared with control", "setting": "[4]", "value": "15-20%"}, {"measurement": "reduction of total VFA level in cecal contents compared with control", "setting": "[4]", "value": "15-20%"}, {"measurement": "amounts of cecal microbes in the range % G+C 40-54", "setting": "[5]", "value": "decreased"}, {"measurement": "relative abundance of cecal bacteria in the range % G+C 20-30", "setting": "[5]", "value": "increased"}, {"measurement": "relative abundance of cecal bacteria in the range % G+C 55-69", "setting": "[5]", "value": "increased"}, {"measurement": "feed consumption", "setting": "[6]", "value": "increased"}, {"measurement": "increase in diet AME", "setting": "[6]", "value": 2, "unit": "%"}, {"measurement": "increase in weight gain", "setting": "[6]", "value": 6, "unit": "%"}]}
